Reference: patent publication US12497394B2, “Fused-cyclic pyrazolone formamide compound and preparation method therefor, pharmaceutical composition and use thereof” (SHANGHAI INSTITUTE OF MATERIA MEDICA, CHINESE ACADEMY OF …, priority 2018, dated 2025)
Several values for one entry are separate records, joined by “and”; a condition that tells them apart may be missing. Identical values can stand only once.

Key:
[1] = target: receptor tyrosine kinase c-Met (Homo sapiens, UniProt P08581); test: In vitro c-Met kinase inhibitory activity; assay type: biochemical; details: two values per compound; for inhibition at 0.001 µM / inhibition at 0.1 µM / inhibition at 0.01 µM: read-out: c-Met Inhibitory rate (%)
Description: Experimental Example 3: Study of In Vitro c-Met Kinase Inhibitory Activity
Since the screening results of 369 kinase profiles of compound DC621044 has shown that the compound has a certain inhibitory activity on c-Met. We further screened some compounds for their inhibitory activity on c-Met kinase.

BaF3/TEL-AXL cells = test: Proliferation of BaF3/TEL-AXL cells; assay type: cell-based; details: two values per compound; for inhibition at 0.001 µM / inhibition at 0.01 µM / inhibition at 0.1 µM: BaF3/TEL-AXL, read-out: BaF3/TEL-AXL proliferation Inhibitory rate (%)
Description: Experimental Example 4: Effect of the Compound on the Proliferation Effect of BaF3/TEL-AXL Cells
Based on the above-mentioned enzyme activity research results, we further explored the effect of the compound on cell proliferation mediated by receptor tyrosine kinase AXL.

[2] = target: T1, receptor tyrosine kinase AXL (Homo sapiens, UniProt P30530); test: Enzyme activity of receptor tyrosine kinase AXL (ELISA); assay type: biochemical; details: read-out: AXL activity Inhibitory rate(%); for inhibition at 0.001 µM: 1 nM; for inhibition at 0.01 µM: 10 nM; for inhibition at 0.1 µM: 100 nM
T1 construct: 50 μL of AXL kinase domain recombinant protein diluted in reaction buffer was added to start the reaction; made in house; host or cells: insect cells (baculovirus expression system)
T1 sequence (P30530 536-807 limits assumed): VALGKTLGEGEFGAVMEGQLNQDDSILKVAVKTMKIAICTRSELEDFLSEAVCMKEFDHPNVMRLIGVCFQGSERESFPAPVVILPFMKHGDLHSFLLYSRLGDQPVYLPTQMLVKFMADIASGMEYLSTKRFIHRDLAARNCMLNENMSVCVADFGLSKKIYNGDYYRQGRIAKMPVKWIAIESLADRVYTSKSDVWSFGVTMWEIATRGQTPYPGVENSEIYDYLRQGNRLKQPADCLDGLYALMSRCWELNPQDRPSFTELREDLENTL
Method: Detection method: Enzyme-linked immunosorbent assay (ELISA)
Tested receptor tyrosine kinase: AXL
The full-wavelength microplate reader for experiment reading was a product of Molecular Device, model: SpectraMax 190; the experiment water was distilled water produced by Sinopharm Group.
Compound preparation: The compounds were centrifuged at 12,000 g for 5 min, and DMSO was added to prepare a 10^−2M stock solution, vortexed evenly and sonicated for 10 min for use, and stored at −40° C. During the test, the compound was diluted from the stock solution to 100 times the tested concentration with DMSO (the DMSO concentration in the system was 1%).
1. […] Discard the liquid from the well. The plate was washed and washed three times with T-PBS (0.1% Tween-20 in potassium-free PBS, 200 μL/well) for 5 minutes each time.
2. 49 μL of ATP solution diluted with reaction buffer (50 mM HEPES pH 7.4, 50 mM MgCl2, 0.5 mM MnCl2, 0.2 mM Na3VO4, 1 mM DTT) was added to each well, and […] of the tested compound was added to each well, and then 50 μL of AXL kinase domain recombinant protein diluted in reaction buffer was added to start the reaction. Two control wells without ATP were added in each experiment. (100 rpm) Reacted in 37° C. shaker for 1 hour. Discard the liquid from the well, and the plate was washed with T-PBS for three times.
3. […] Discard the liquid from the well, and the plate was washed with T-PBS for three times.
4. The horseradish peroxidase-labeled goat anti-mouse second antibody dilution (antibody diluted 1:2000 with BSA 5 mg/mL in T-PBS), 100 μL/well, and reacted in 37° C. shaker for 0.5 hours. Discard the liquid from the well, and the plate was washed with T-PBS for three times.
6. The reaction was quenched with 50 μL/well 2M […], and read at 490 nm using a tunable microplate reader VERSAmax.
The IC50 values were obtained by four-parameter regression analysis using the software supplied with the microplate reader.

receptor tyrosine kinase c-Met, sequence (P08581 25-1390): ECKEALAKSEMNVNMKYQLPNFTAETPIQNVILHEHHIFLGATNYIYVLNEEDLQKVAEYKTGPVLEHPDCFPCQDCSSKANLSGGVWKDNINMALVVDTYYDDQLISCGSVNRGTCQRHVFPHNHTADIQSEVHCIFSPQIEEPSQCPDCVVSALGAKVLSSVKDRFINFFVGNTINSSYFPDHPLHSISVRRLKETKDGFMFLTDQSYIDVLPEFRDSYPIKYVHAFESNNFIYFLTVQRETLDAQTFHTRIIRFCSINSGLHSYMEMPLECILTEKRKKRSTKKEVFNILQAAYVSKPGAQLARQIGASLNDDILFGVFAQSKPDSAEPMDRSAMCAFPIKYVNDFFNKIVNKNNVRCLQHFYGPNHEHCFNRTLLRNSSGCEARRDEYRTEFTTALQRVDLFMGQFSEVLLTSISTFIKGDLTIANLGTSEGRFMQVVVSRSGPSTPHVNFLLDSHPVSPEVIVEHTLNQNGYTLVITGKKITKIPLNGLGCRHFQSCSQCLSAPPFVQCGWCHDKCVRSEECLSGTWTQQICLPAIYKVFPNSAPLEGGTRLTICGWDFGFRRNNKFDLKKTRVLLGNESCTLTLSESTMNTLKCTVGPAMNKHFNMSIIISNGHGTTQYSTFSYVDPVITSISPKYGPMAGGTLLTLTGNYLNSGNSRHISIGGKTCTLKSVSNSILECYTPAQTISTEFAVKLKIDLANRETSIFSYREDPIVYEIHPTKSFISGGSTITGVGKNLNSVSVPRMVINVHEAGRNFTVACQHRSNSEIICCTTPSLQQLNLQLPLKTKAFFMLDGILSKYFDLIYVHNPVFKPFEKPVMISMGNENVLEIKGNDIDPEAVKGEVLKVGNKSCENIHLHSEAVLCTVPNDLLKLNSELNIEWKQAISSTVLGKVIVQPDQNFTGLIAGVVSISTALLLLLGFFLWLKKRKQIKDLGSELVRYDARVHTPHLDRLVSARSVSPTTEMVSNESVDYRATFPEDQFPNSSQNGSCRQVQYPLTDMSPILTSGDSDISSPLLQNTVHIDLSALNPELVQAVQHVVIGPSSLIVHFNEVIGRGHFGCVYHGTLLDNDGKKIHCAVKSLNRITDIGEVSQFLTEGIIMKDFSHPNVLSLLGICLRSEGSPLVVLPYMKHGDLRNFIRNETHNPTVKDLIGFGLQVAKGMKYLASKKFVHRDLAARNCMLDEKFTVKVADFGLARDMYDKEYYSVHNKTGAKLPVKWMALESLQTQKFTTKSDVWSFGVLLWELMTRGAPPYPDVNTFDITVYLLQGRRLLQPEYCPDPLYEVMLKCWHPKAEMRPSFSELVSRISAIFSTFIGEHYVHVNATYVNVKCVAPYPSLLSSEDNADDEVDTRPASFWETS

Row | Compound | c-Met Inhibitory rate (%) ([1]; 1 nM, 0.001 µM) | inhibition at 0.001 µM ([1]; 1 nM) | c-Met Inhibitory rate (%) ([1]; 10 nM, 0.01 µM) | c-Met Inhibitory rate (%) ([1]; 100 nM, 0.1 µM) | inhibition at 0.1 µM ([1]; 100 nM) | BaF3/TEL-AXL proliferation Inhibitory rate (%) (BaF3/TEL-AXL cells; 1 nM, 0.001 µM) | BaF3/TEL-AXL proliferation Inhibitory rate (%) (BaF3/TEL-AXL cells; 10 nM, 0.01 µM) | BaF3/TEL-AXL proliferation Inhibitory rate (%) (BaF3/TEL-AXL cells; 100 nM, 0.1 µM) | inhibition at 0.001 µM (BaF3/TEL-AXL cells; 1 nM) | inhibition at 0.01 µM (BaF3/TEL-AXL cells; 10 nM) | inhibition at 0.1 µM (BaF3/TEL-AXL cells; 100 nM) | inhibition at 0.001 µM [2] | inhibition at 0.01 µM [2] | inhibition at 0.1 µM [2] | inhibition at 0.01 µM ([1]; 10 nM)
1 | COCCOc1cc2ncnc(Oc3ccc(NC(=O)c4c5n(n(-c6cc(F)ccc6F)c4=O)CCCC5)c(F)c3)c2cc1OCCOC [DC621054, 1-(2,5-difluorophenyl)-N-(4-((6,7-bis(2-methoxyethoxy)quinazolin-4-yl)oxy)-2-fluorophenyl)-2-oxo-1,2,4,5,6,7-hexahydropyrazolo[1,5-a]pyridine-3-formamide] | 60.0% | 61.1% | 48.9% and 69.6% | 100% | 94.1% | 81.8% | 82.5% | 86.1% | 79.6% | 82.8% | 84.7% | 12.2% | 58.2% | 95.9% | 
2 | COCCOc1cc2ncnc(Oc3ccc(NC(=O)c4c5n(n(-c6ccc(F)cc6)c4=O)CCCC5)cc3Cl)c2cc1OCCOC [DC621100, N-(4-((6,7-bis(2-methoxyethoxy)quinazolin-4-yl)oxy)-3-chlorophenyl)-1-(4-fluorophenyl)-2-oxo-1,2,4,5,6,7-hexahydropyrazolo[1,5-a]pyridine-3-formamide] |  |  | 63.7% and 38.0% | 89.1% | 94.4% |  |  |  |  |  |  | 18.9% | 59.2% | 93% | 
3 | O=C(Nc1ccc(Oc2ncnc3cc4c(cc23)OCCOCCOCCO4)c(F)c1)c1c2n(n(-c3ccc(F)cc3)c1=O)CCCC2 [DC621067, N-(3-fluoro-4-((7,8,10,11,13,14-hexahydro-[1,4,7,10]tetraoxacyclododecane [2,3-g]quinazolin-4-yl)oxy)phenyl)-1-(4-fluorophenyl)-2-oxo-1,2,4,5,6,7-hexahydropyrazolo[1,5-a]pyridine-3-formamide] |  |  |  |  |  | 74.8% | 85.4% | 83.0% | 80.6% | 87.2% | 80.8% | 8.6% | 54.5% | 89% | 
4 | COCCOc1cc2ncnc(Oc3ccc(NC(=O)c4c5n(n(-c6cc(F)ccc6F)c4=O)CCCC5)cc3Cl)c2cc1OCCOC [DC621080, 1-(2,5-difluorophenyl)-N-(4-((6,7-bis(2-methoxyethoxy)quinazolin-4-yl)oxy)-3-chlorophenyl)-2-oxo-1,2,4,5,6,7-hexahydropyrazolo[1,5-a]pyridine-3-formamide] |  |  | 58.3% | 93.5% | 97.1% |  |  |  |  |  |  | 35.5% | 76.4% | 100% | 68.8%
5 | COCCOc1cc2ncnc(Oc3ccc(NC(=O)c4c5n(n(-c6ccc(F)cc6)c4=O)CCCC5)c(F)c3)c2cc1OCCOC [DC621060, N-(4-((6,7-bis(2-methoxyethoxy)quinazolin-4-yl)oxy)-2-fluorophenyl)-1-(4-fluorophenyl)-2-oxo-1,2,4,5,6,7-hexahydropyrazolo[1,5-a]pyridine-3-formamide] |  |  | 58.1% | 95.4% | 91.9% | 66.3% | 73.4% | 85.3% | 64.5% | 71% | 85.4% | 21.5% | 54.4% | 84.2% | 43.9%
6 | O=C(Nc1ccc(Oc2ncnc3cc4c(cc23)OCCOCCOCCO4)c(Cl)c1)c1c2n(n(-c3ccccc3)c1=O)CCCC2 [DC621062, N-(3-chloro-4-((7,8,10,11,13,14-hexahydro-[1,4,7,10]tetraoxacyclododecane [2,3-g]quinazolin-4-yl)oxy)phenyl)-2-oxo-1-phenyl-1,2,4,5,6,7-hexahydropyrazolo[1,5-a]pyridine-3-formamide] | 35.9% and 68.6% |  | 78.1% and 98.9% | 100% | 99.8% |  |  |  |  |  |  | 6.3% | 43% | 70.6% | 
7 | O=C(Nc1ccc(Oc2ncnc3cc4c(cc23)OCCOCCOCCO4)c(F)c1)c1c2n(n(-c3ccccc3)c1=O)CCCC2 [DC621061, N-(3-fluoro-4-((7,8,10,11,13,14-hexahydro-[1,4,7,10]tetraoxacyclododecane [2,3-g]quinazolin-4-yl)oxy)phenyl)-2-oxo-1-phenyl-1,2,4,5,6,7-hexahydropyrazolo[1,5-a]pyridine-3-formamide] | 35.7% and 61.1% |  | 62.4% | 95.7% | 94.7% |  |  |  |  |  |  | 22.9% | 66.7% | 91.8% | 51.1%
8 | COCCOc1cc2ncnc(Oc3ccc(NC(=O)c4c5n(n(-c6ccccc6F)c4=O)CCCC5)cc3C(F)(F)F)c2cc1OCCOC [DC621092, N-(4-((6,7-bis(2-methoxyethoxy)quinazolin-4-yl)oxy)-3-trifluoromethylphenyl)-1-(2-fluorophenyl)-2-oxo-1,2,4,5,6,7-hexahydropyrazolo[1,5-a]pyridine-3-formamide] | 16.8% | 25.3% | 53.1% | 89.8% | 94.2% |  |  |  |  |  |  | 4.8% | 61% | 78% | 71.6%
9 | COCCOc1cc2ncnc(Oc3ccc(NC(=O)c4c5n(n(-c6ccccc6)c4=O)CCCC5)cc3C(F)(F)F)c2cc1OCCOC [DC621072, N-(4-((6,7-bis(2-methoxyethoxy)quinazolin-4-yl)oxy)-3-trifluoromethylphenyl)-2-oxo-1-phenyl-1,2,4,5,6,7-hexahydropyrazolo[1,5-a]pyridine-3-formamide] | 34.3% | 24.1% | 68.4% | 96.6% | 95.8% |  |  |  |  |  |  | 34.8% | 52.1% | 75.9% | 67.6%
10 | O=C(Nc1ccc(Oc2ncnc3cc4c(cc23)OCCOCCOCCO4)c(Cl)c1)c1c2n(n(-c3ccc(F)cc3)c1=O)CCCC2 [DC621068, N-(3-chloro-4-((7,8,10,11,13,14-hexahydro-[1,4,7,10]tetraoxacyclododecane[2,3-g]quinazolin-4-yl)oxy)phenyl)-1-(4-fluorophenyl)-2-oxo-1,2,4,5,6,7-hexahydropyrazolo[1,5-a]pyridine-3-formamide] | 46.0% | 34% | 85.9% |  | 100% |  |  |  |  |  |  | 16.5% | 55.1% | 85.8% | 71.2%
